Experiments:
Hepatitis C virus [1] = assay: Antiviral activity against HCV genotype 1b infected in human Huh7 cells after 3 days by cell-based replicon assay in presence of 10% fetal bovine serum; assay type: functional, Hepacivirus hominis; details: Huh-7, 72 h
Hepatitis C virus [2] = assay: Antiviral activity against HCV genotype 1b infected in human Huh7 cells after 3 days by cell-based replicon assay in presence of 40% normal human serum; assay type: functional, Hepacivirus hominis; details: Huh-7, 72 h
[3] = Cytotoxicity against human HuH7 cells; assay type: cell-based, Huh-7
Hepatitis C virus [4] = assay: Antiviral activity against HCV genotype 1b infected in human Huh7 cells after 3 days by cell-based replicon assay; assay type: functional, Hepacivirus hominis; details: Huh-7, 72 h
[5] = Half life in beagle dog at 1 mg/kg, iv as 30 mins infusion; assay type: ADME, organism-based, Canis lupus familiaris; design: dose 1 mg/kg, route intravenous; details: in vivo
[6] = Half life in Sprague-Dawley rat at 5 mg/kg, iv as 30 mins infusion; assay type: ADME, organism-based; design: dose 5 mg/kg, route intravenous; details: in vivo
[7] = Lipophilicity, log P of the compound; assay type: physicochemical; details: octanol/water
[8] = Oral bioavailability in Sprague-Dawley rat at 30 mg/kg; assay type: ADME, organism-based; details: in vivo
[9] = Half life in monkey at 1 mg/kg, iv as 30 mins infusion; assay type: ADME, organism-based, Macaca mulatta; design: dose 1 mg/kg, route intravenous; details: rhesus monkey, in vivo
[10] = Oral bioavailability in beagle dog at 2 mg/kg; assay type: ADME, organism-based, Canis lupus familiaris; details: in vivo
[11] = Oral bioavailability in Sprague-Dawley rat at 2 mg/kg; assay type: ADME, organism-based; details: in vivo
[12] = Cmax in monkey at 5 mg/kg, po; assay type: ADME, organism-based, Macaca mulatta; design: dose 5 mg/kg, route oral; details: rhesus monkey, in vivo
[13] = Oral bioavailability in beagle dog at 1 mg/kg; assay type: ADME, organism-based, Canis lupus familiaris; details: in vivo
[14] = Oral bioavailability in monkey at 5 mg/kg; assay type: ADME, organism-based, Macaca mulatta; details: rhesus monkey, in vivo
[15] = Half life in Sprague-Dawley rat at 1 mg/kg, iv as 30 mins infusion; assay type: ADME, organism-based; design: dose 1 mg/kg, route intravenous; details: in vivo
[16] = Oral bioavailability in beagle dog at 2.3 mg/kg; assay type: ADME, organism-based, Canis lupus familiaris; details: in vivo
[17] = Cmax in Sprague-Dawley rat at 3 mg/kg, po; assay type: ADME, organism-based; design: dose 3 mg/kg, route oral; details: in vivo
[18] = Cmax in monkey at 3 mg/kg, po; assay type: ADME, organism-based, Macaca mulatta; design: dose 3 mg/kg, route oral; details: rhesus monkey, in vivo
[19] = Oral bioavailability in Sprague-Dawley rat at 5 mg/kg; assay type: ADME, organism-based; details: in vivo
[20] = Half life in Sprague-Dawley rat at 3 mg/kg, po; assay type: ADME, organism-based; design: dose 3 mg/kg, route oral; details: in vivo
[21] = Half life in monkey at 3 mg/kg, po; assay type: ADME, organism-based, Macaca mulatta; design: dose 3 mg/kg, route oral; details: rhesus monkey, in vivo
[22] = Half life in beagle dog at 2.5 mg/kg, po; assay type: ADME, organism-based, Canis lupus familiaris; design: dose 2.5 mg/kg, route oral; details: in vivo
[23] = Cmax in monkey at 2.5 mg/kg, po; assay type: ADME, organism-based, Macaca mulatta; design: dose 2.5 mg/kg, route oral; details: rhesus monkey, in vivo
[24] = Oral bioavailability in monkey at 2.5 mg/kg; assay type: ADME, organism-based, Macaca mulatta; details: rhesus monkey, in vivo
[25] = Cmax in beagle dog at 2.5 mg/kg, po; assay type: ADME, organism-based, Canis lupus familiaris; design: dose 2.5 mg/kg, route oral; details: in vivo
[26] = Half life in monkey at 2.5 mg/kg, po; assay type: ADME, organism-based, Macaca mulatta; design: dose 2.5 mg/kg, route oral; details: rhesus monkey, in vivo
[27] = Oral bioavailability in Sprague-Dawley rat at 1 mg/kg; assay type: ADME, organism-based; details: in vivo
[28] = Oral bioavailability in beagle dog at 2.5 mg/kg; assay type: ADME, organism-based, Canis lupus familiaris; details: in vivo

Work on `COC(=O)N[C@@H](C(=O)N1CCCC1c1ncc(C#CC#Cc2ccc(-c3cnc(C4CCCN4C(=O)[C@H](NC(=O)OC)C(C)C)[nH]3)cc2)[nH]1)C(C)C` (single isomer, unassigned; 13b) yielded an EC50 (Hepatitis C virus [1]) of 47 nM, an EC50 (Hepatitis C virus [2]) of 137 nM and a CC50 [3] of 298000 nM.

Work on `COC(=O)N[C@H](C(=O)N1CCC[C@H]1c1ncc(-c2ccc(-c3ccc(-c4cnc([C@@H]5CC6(CN5C(=O)[C@@H](NC(=O)OC)C(C)C)OCCO6)[nH]4)cc3)cc2)[nH]1)C(C)C` yielded an EC50 (Hepatitis C virus [4]) of 0.0074 nM.

Compound `COC(=O)N[C@H](C(=O)N1CCC[C@@H]1c1ncc(-c2ccc(C#CC#Cc3cnc([C@H]4CCCN4C(=O)[C@H](NC(=O)OC)C(C)C)[nH]3)cc2)[nH]1)C(C)C` has an EC50 (Hepatitis C virus [1]) of 0.409 nM, an EC50 (Hepatitis C virus [2]) of 0.737 nM and a CC50 [3] of 30300 nM.

With `COC(=O)N[C@@H](C(=O)N1CCCC1c1ncc(C#CC#Cc2ccc(-c3cnc(C4CCCN4C(=O)[C@H](NC(=O)OC)C(C)C)[nH]3)cc2)[nH]1)C(C)C` (single isomer, unassigned; 13k) the EC50 (Hepatitis C virus [1]) was 994 nM, the EC50 (Hepatitis C virus [2]) was 7440 nM and the CC50 [3] was 108000 nM.

In the case of `CN(C)[C@@H](C(=O)N1CCC[C@H]1c1nc2cc(-c3cnc(-c4ccc5[nH]c([C@@H]6CCCN6C(=O)[C@@H](c6ccccc6)N(C)C)nc5c4)o3)ccc2[nH]1)c1ccccc1`, the EC50 (Hepatitis C virus [4]) is reported as less than 4.6 nM.

Compound `COC(=O)N[C@H](C(=O)N1CCC[C@H]1c1ncc(-c2ccc(-c3csc4c(-c5ccc6[nH]c([C@@H]7CCCN7C(=O)[C@H](NC(=O)OC)c7ccccc7)nc6c5)csc34)cc2)[nH]1)C(C)C` has an EC50 (Hepatitis C virus [4]) of 0.003 nM.

Compound `COC(=O)N[C@H](C(=O)N1CCCC1c1ncc(C#CC#Cc2ccc(-c3cnc(C4CCCN4C(=O)[C@@H](NC(=O)OC)C(C)C)[nH]3)cc2)[nH]1)C(C)C` (single isomer, unassigned; 13i) has an EC50 (Hepatitis C virus [1]) of 5.37 nM, an EC50 (Hepatitis C virus [2]) of 36.1 nM and a CC50 [3] of 34700 nM.

`COC(=O)N[C@@H](C(=O)N1CCC[C@H]1c1ncc(-c2ccc3c(c2)O[C@@H](c2ccccc2)n2c-3cc3cc(-c4cnc([C@@H]5CCCN5C(=O)[C@H](NC(=O)OC)C(C)C)[nH]4)ccc32)[nH]1)C(C)C` gave a half-life [5] of 4.7 h, a half-life [6] of 4.2 h and an EC50 (Hepatitis C virus [4]) of 0.003 nM. For the same compound, the logP [7] was 8.61, the bioavailability [8] was 9% and the half-life [9] was 16 h. The bioavailability [10] was 35%.

Compound `c1cc2oc(-c3ccc(-c4ncc([C@@H]5CCCN5)[nH]4)cc3)cc2cc1-c1cnc([C@@H]2CCCN2)[nH]1` has a half-life [5] of 7.7 h, a bioavailability [11] of 38% and a Cmax [12] of 0.18 µM. It also gave a bioavailability [13] of 108%, a bioavailability [14] of 12% and a half-life [15] of 2 h. The half-life [9] was 3 h.

`COC(=O)N[C@@H](C(=O)N1CCC[C@H]1c1ncc(-c2ccc(C#CC#Cc3ccc(-c4cnc([C@@H]5CCCN5C(=O)[C@H](NC(=O)OC)C(C)C)[nH]4)cc3)cc2)[nH]1)C(C)C` gave an EC50 (Hepatitis C virus [4]) of 0.384 nM.

Work on `COC(=O)N[C@@H](C(=O)N1CCC[C@H]1c1ncc(C#CC#Cc2cnc([C@@H]3CCCN3C(=O)[C@H](NC(=O)OC)C(C)C)[nH]2)[nH]1)C(C)C` yielded an EC50 (Hepatitis C virus [4]) of 1.33 nM.

With `COC(=O)N[C@H](C(=O)N1CCC[C@@H]1c1ncc(C#CC#Cc2ccc(-c3cnc([C@H]4CCCN4C(=O)[C@H](NC(=O)OC)C(C)C)[nH]3)cc2)[nH]1)C(C)C` (single isomer, unassigned) the EC50 (Hepatitis C virus [1]) was 0.079 nM, the EC50 (Hepatitis C virus [2]) was 0.243 nM and the CC50 [3] was 24700 nM.

Compound `COC(=O)N[C@H](C(=O)N1CCC[C@H]1c1ncc(-c2ccc(-c3ccc(-c4cnc([C@@H]5CCCN5C(=O)[C@@H](NC(=O)OC)C(C)C)[nH]4)cc3)cc2)[nH]1)C(C)C` has a bioavailability [16] of 58.5%, a Cmax [17] of 0.728 µM and an EC50 (Hepatitis C virus [4]) of 0.003 nM. For the same compound, the Cmax [18] was 0.5 µM, the logP [7] was 6.33 and the bioavailability [19] was 50%. For the same compound, the half-life [20] was 1.5 h and the half-life [21] was 3 h.

Compound `COC(=O)N[C@@H](C(=O)N1CCC[C@H]1c1nc2ccc(C#CC#Cc3ccc4nc([C@@H]5CCCN5C(=O)[C@H](NC(=O)OC)C(C)C)[nH]c4c3)cc2[nH]1)C(C)C` has an EC50 (Hepatitis C virus [4]) of 0.009 nM.

Work on `COC(=O)N[C@@H](C(=O)N1CCC[C@H]1C(=O)Nc1ccc([C@H]2CC[C@@H](c3ccc(NC(=O)[C@@H]4CCCN4C(=O)[C@H](NC(=O)OC)C(C)C)cc3)N2c2ccc(C(C)(C)C)cc2)cc1)C(C)C` yielded a half-life [22] of 7.3 h, a Cmax [17] of 3.36 µM and a Cmax [23] of 0.32 µM. It also gave a bioavailability [24] of 35%, an EC50 (Hepatitis C virus [4]) of 0.005 nM and a Cmax [25] of 0.72 µM. It also gave a half-life [26] of 5 h, a bioavailability [27] of 6.2% and a half-life [20] of 15.9 h. For the same compound, the bioavailability [28] was 57%.

In the case of `COC(=O)N[C@@H](C(=O)N1CCC[C@H]1c1nc2ccc(C#Cc3ccc4nc([C@@H]5CCCN5C(=O)[C@H](NC(=O)OC)C(C)C)[nH]c4c3)cc2[nH]1)C(C)C`, the EC50 (Hepatitis C virus [4]) is reported as 0.055 nM.

`COC(=O)N[C@H](C(=O)N1CCCC1c1ncc(C#CC#Cc2ccc(-c3cnc(C4CCCN4C(=O)[C@@H](NC(=O)OC)C(C)C)[nH]3)cc2)[nH]1)C(C)C` (single isomer, unassigned; 13j) gave an EC50 (Hepatitis C virus [1]) of 8880 nM, an EC50 (Hepatitis C virus [2]) of 6900 nM and a CC50 [3] of 59700 nM.

From ChEMBL document CHEMBL3351364 (J Med Chem, 2014)
